Reference: paper PMC4652989, “A small-molecule inhibitor suppresses the tumor-associated mitochondrial NAD(P)^+-dependent malic enzyme (ME2) and induces cellular senescence” (Oncotarget, 2015)
Read-outs that look alike come from different tables or passages of the source.

What was measured:
[1] = test system: H1299 cells; type: cell-based, human; conditions: for H1299 cell number / decrease of H1299 cell number compared with the control: 24 h; for H1299 cell growth, time course: within 48 h
Procedure: H1299 cells were grown in 90% Dulbecco's Modified Eagle Medium (DMEM) with 10% fetal bovine serum (FBS) (Gibco BRL, USA) at a temperature of 37°C in a humidified 5% CO2 environment. Cells were seeded in 6-well cell culture dishes in triplicate at a density of 1 × 10^5 cells/ml medium containing 10% FBS and treated with EA or siRNA at the indicated dosage. The cells were then counted, and cell numbers were determined at the indicated time points. The control shLuc and ME2 shRNA were purchased from the Nature RNAi Core Facility, Taipei, Taiwan (NRC). The shME2 was made using pLKO 005 (TRC2 vector). The target shRNA sequence for ME2 is 5′-[…]-3′, and the target shRNA sequence for luciferase is 5′-[…]-3′.

[2] = test system: H1299 cells; assay: senescence-associated β-galactosidase (SA-β-gal) assay; type: cell-based, human
Procedure: Cells were washed in PBS, fixed for 4 min at room temperature in approximately 2 to 3% formaldehyde or 0.2% glutaraldehyde, washed, and then incubated at 37°C under no C0_2 conditions with fresh SA-β-Gal stain solution. Cells were stained with 5-bromo-4-chloro-3-indolyl β-D-galactoside (X-Gal) for 2 to 16 h and detected using the senescence-associated β-galactosidase (SA-β-gal) assay. The percentages of SA-β-gal^+ cells were calculated by the number of positively stained cells per 1,000 cells counted in random fields.

[3] = test system: m-NAD(P)-ME protein expression in H1299 cells; assay: immunoblotting of m-NAD(P)-ME in H1299 cells; type: cell-based, human; conditions: various concentrations of EA, within 24 h, Western blot
Procedure: The supernatants were boiled in loading buffer, and an aliquot containing 100 μg of protein was separated by SDS-PAGE. After blotting, the PVDF membranes were incubated with anti-human m-NAD(P)-ME (ME2) (Sigma, St Louis, MO) and anti-β-actin antibodies (Santa Cruz) for 6 h, and membranes were then incubated for 1 h with the second antibody labeled with horseradish peroxidase. The antigen-antibody complexes were visualized using enhanced chemiluminescence (Amersham Pharmacia Biotech, USA).

[4] = test system: m-NAD(P)-ME mRNA in H1299 cells; assay: RT-PCR of ME2 in H1299 cells; type: cell-based, human; conditions: EA for 12 h
Procedure: Total RNA was isolated from H1299 cells treated with shME2 or EA for 12 h by using a total RNA reagent (MDBio, Inc., Taiwan). One microgram of RNA was reverse transcribed into cDNA using MMLV reverse transcriptase (Epicentre Biotechnologies, USA). PCR was performed in the linear range (by 25 cycles) with primers specific for ME2 and actin. The primer sequences used to amplify the target genes were as follows: ME2 forward primer, 5′-[…]-3′; ME2 reverse primer, 5′-[…]-3′; actin forward primer, 5′-[…]-3′, and reverse primer, 5′-[…]-3′.

[5] = target: T1, m-NAD(P)-ME Q51A/E90A (Homo sapiens, UniProt P23368, E90A/Q51A); assay: malic enzyme activity inhibition, dimer interface mutant; type: biochemical; conditions: Q51A/E90A pre-incubated with 40 μM EA
T1 construct: made in house; host or cells: Escherichia coli BL21
Procedure: (§1) The malic enzyme reaction was assayed in a reaction buffer containing 50 mM Tris-HCl (pH 7.4) with saturated concentrations of L-malate, NAD^+ or NADP^+ and MgCl2, with various concentrations of EA in a total volume of 1 ml at 30°C. The absorbance at 340 nm was continuously monitored in a UV/VIS spectrophotometer Lambda 25 (Perkin Elmer, MA, USA). In this process, one unit of enzyme was defined as the amount of enzyme that produces 1 μmol of NAD(P)H per min under the assay conditions. An absorption coefficient of 6.22 cm^−1mM^−1 for NAD(P)H was used in the calculations.
(§2) The inhibition experiments were conducted with a series of EA concentrations in a buffer containing 50 mM Tris-HCl (pH 7.4), 40 mM malate (pH 7.4), 10 mM MgCl2 and 2 mM NAD^+ (pH 7.4).

[6] = target: T2, m-NAD(P)-ME E59N (Homo sapiens, UniProt P23368, E59N); assay: malic enzyme activity inhibition, fumarate site mutant; type: biochemical; conditions: E59N pre-incubated with 40 μM EA
T2 construct: made in house; host or cells: Escherichia coli BL21
Procedure: as §1, §2

[7] = target: T3, m-NAD(P)-ME R91A (Homo sapiens, UniProt P23368, R91A); assay: as above; type: biochemical; conditions: R91A pre-incubated with 40 μM EA
T3 construct: made in house; host or cells: Escherichia coli BL21
Procedure: as §1, §2

T1 sequence (P23368 19-584 Q51A/E90A): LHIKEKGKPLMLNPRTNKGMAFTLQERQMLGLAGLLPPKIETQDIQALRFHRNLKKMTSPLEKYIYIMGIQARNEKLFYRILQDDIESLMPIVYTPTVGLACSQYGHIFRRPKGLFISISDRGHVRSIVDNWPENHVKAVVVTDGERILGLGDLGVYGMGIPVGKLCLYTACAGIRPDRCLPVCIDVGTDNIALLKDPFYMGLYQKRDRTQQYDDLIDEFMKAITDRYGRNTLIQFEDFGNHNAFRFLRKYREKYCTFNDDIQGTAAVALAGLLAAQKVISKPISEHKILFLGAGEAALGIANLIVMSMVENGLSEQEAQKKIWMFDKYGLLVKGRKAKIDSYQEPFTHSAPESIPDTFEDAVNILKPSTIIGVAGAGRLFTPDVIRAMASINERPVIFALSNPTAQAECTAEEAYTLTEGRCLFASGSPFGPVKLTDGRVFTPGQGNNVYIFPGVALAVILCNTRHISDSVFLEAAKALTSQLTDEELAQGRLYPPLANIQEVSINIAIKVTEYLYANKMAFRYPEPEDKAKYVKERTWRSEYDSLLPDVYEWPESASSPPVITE
T2 sequence (P23368 19-584 E59N): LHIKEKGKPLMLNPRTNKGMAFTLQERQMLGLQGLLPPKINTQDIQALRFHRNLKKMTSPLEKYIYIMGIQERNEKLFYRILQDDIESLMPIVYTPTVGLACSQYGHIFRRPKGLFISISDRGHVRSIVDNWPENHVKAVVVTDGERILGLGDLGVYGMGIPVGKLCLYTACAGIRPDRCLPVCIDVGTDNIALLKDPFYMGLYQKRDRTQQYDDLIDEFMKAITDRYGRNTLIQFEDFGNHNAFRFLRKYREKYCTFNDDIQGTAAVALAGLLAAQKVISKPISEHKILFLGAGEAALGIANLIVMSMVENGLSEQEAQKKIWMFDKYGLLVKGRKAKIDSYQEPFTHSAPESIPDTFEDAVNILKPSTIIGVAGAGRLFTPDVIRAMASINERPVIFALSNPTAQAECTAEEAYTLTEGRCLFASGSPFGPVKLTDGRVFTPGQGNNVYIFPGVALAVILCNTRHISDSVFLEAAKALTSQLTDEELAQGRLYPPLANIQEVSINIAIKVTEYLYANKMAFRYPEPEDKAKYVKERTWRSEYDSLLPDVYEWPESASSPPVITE
T3 sequence (P23368 19-584 R91A): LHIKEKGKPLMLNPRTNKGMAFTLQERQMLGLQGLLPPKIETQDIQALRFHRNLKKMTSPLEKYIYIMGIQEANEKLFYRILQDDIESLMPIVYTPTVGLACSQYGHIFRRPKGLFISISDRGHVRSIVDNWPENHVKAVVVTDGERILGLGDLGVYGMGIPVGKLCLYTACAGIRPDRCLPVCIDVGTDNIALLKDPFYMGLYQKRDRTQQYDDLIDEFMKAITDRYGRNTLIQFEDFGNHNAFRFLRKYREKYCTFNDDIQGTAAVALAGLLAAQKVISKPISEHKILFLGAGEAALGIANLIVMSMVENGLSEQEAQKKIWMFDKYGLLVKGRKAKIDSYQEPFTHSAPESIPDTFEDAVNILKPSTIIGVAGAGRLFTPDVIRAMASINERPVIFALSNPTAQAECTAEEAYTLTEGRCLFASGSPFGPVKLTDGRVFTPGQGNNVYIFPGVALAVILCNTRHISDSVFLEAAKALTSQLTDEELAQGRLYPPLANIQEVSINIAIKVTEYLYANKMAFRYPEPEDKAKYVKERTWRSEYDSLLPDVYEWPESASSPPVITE

restoration of EA-inhibited enzyme activity by fumarate [5] | restoration of EA-inhibited enzyme activity by fumarate [6] | restoration of EA-inhibited enzyme activity by fumarate [7] | Compound | H1299 cell number ([1]; 5 nM EA) | H1299 cell number ([1]; 10 nM EA) | decrease of H1299 cell number compared with the control ([1]; 100 nM EA) [%] | decrease of H1299 cell number compared with the control ([1]; 1 μM EA) [%] | H1299 cell growth, time course ([1]; 1 μM EA) | decrease of H1299 cell number compared with the control ([1]; 10 μM EA) [%] | H1299 cell growth, time course ([1]; 10 μM EA, vs 1 μM) | number of SA-β-gal+ H1299 cells ([2]; 1 μM EA, 0-72 h) | EA-induced H1299 cell senescence ([2]; 10 μM EA, within 72 h, vs 1 μM) | amount of senescence after 10 μM EA relative to 1 μM EA ([2]; time course 0-72 h, SA-β-gal+ cells) [fold] | protein expression of m-NAD(P)-ME in H1299 cells [3] | mRNA synthesis of m-NAD(P)-ME in H1299 cells [4]
 |  |  | O=C(O)c1cc2ccccc2c(Cc2c(O)c(C(=O)O)cc3ccccc23)c1O [Embonic acid, embonic acid] | did not decrease | did not decrease | 23 | 30 | inhibited H1299 cell growth | 40 | more pronounced | increased in a time-dependent manner | more prominent | 2 | not influenced | not influenced
could not be restored | could not be restored | could not be restored | O=C(O)/C=C/C(=O)O [fumarate] |  |  |  |  |  |  |  |  |  |  |  | 
